Laboratory results from US12583835B2, “Crystal form of nitroxoline prodrug, pharmaceutical composition containing same, and preparation method therefor and application thereof” (Jiangsu Yahong Meditech Co., Ltd., priority 2020, dated 2026).

Tests used:
[1] = Stability in liver microsome (dog); type: in vitro ADME; details: 2 μM, 30 minutes, 37° C.
Procedure: (§1) Experimental instruments: thermostatic oscillator (SHA-B, Guohua Instrument); centrifuge (5810R, Eppendorf), mass spectrometer (API4000, Applied), liquid chromatography (LC-30AD, Shimadzu); sampler (CTC Analytics AG System, CTC).
(§2) Experimental procedures: to 100 mM phosphate buffer was added 25 μg/mL alamethicin (Aldrich Reagents), 5 mM magnesium chloride and 0.5 mg/mL microsomes (XENOTECH) to prepare a reaction solution without coenzymes. To a portion of the reaction solution was added 1 mM reduced nicotinamide adenine dinucleotide phosphate (Aldrich Reagents) and 5 mM uridine diphosphate glucuronic acid (Aldrich Reagents) to prepare a reaction solution with coenzymes. […] Immediately after mixing well, 50 μL of the solution was collected as the 0-minute sample, and another 50 μL was collected after 30 minutes of incubation of the remaining sample at 37° C. The proteins in all collected samples were immediately precipitated, and the supernatants were collected by centrifugation, in which the compound concentrations were determined by LC/MS/MS.

[2] = Stability in liver microsome (rat); type: in vitro ADME; details: 2 μM, 30 minutes, 37° C.
Procedure: as §1, §2

[3] = Stability in liver microsome (mouse); type: in vitro ADME; details: 2 μM, 30 minutes, 37° C.
Procedure: as §1, §2

[4] = Stability in liver microsome (human); type: in vitro ADME; details: 2 μM, 30 minutes, 37° C.
Procedure: as §1, §2

[5] = Pharmacokinetic assay in dogs; type: in vivo; details: beagles
From the text: Nitroxoline is mainly metabolized by Phase II metabolism in the liver with a high metabolism rate, thus the in vivo half-life is short. In this experiment, after a single intravenous or oral administration of nitroxoline and the compound obtained in Example 1 to dogs, the changes in the concentration of the compound nitroxoline in dog plasma were studied, so as to evaluate the in vivo pharmacokinetic behaviors of nitroxoline and the compound obtained in Example 1.
Male beagles (Beijing Marshall Bioresources Co., Ltd., laboratory animal production license No.: SCXK (Beijing) 2016-0001, laboratory animal certificate No.: 11400600001728), 3 beagles per group, weight 10-13 kg, 20-22 months old, were fasted overnight before drug administration with free access to water, and food was given 4 hours after drug administration. The compound to be tested was put into an EP tube, dimethyl sulfoxide, Solutol® and sterile water for injection (the volume ratio of the three was 1:2:17, v:v:v) were added, and the EP tube was sonicated for 20 minutes to fully dissolve the compound (formulation concentration of the compound: 0.005 mmol/mL). The intravenous dose was 0.01 mmol/kg, and the oral dose was 0.1 mmol/kg. 0.3 ml of whole blood was collected from the jugular vein before drug administration (0 hour) and 0.0833, 0.25, 0.5, 0.75, 1, 2, 4, 6, 8, 10 and 12 hours after drug administration (the sampling points were adjusted according to the situation) and placed in a centrifuge tube containing EDTA-K2 (Aldrich Reagents) for anticoagulation, which was placed in crushed ice after sample collection. The tube was centrifuged at 1530 g for 10 minutes within 0.5 hours of sample collection. All clean plasma were isolated and placed in another clean centrifuge tube, which was placed in a −20° C. refrigerator until testing.
A series of solutions for standard curve was prepared. To 10 μL of solutions for standard curve and samples was added 1000 μL of internal standard working solution (a solution of 5 ng/mL verapamil (Aldrich Reagents), 50 ng/mL glibenclamide (Aldrich Reagents) and 50 ng/mL diclofenac (Aldrich Reagents) in acetonitrile) was added, and the resulting solution was vortexed for 5 minutes. After centrifuging at 4° C., 3700 rpm for 10 minutes, 60 μL of the supernatant was collected into a sample tube and mixed well with 120 μL of water, and 10 μL of the mixed solution was injected into the LC/MS system for determination. Pharmacokinetic parameters were calculated using WinNonlin V6.2 non-compartmental model.

[6] = Dynamic vapour sorption (DVS); type: physicochemical
Procedure: The DVS curves were acquired on DVS Intrinsic of SMS (Surface Measurement Systems). The relative humidity at 25° C. was corrected for the deliquescence points of LiCl, Mg(NO3)2 and KCl. • Test temperature: 25° C. • Sample amount: 10-20 mg • Shielding gas and flow: nitrogen, 200 mL/min • dm/dt: 0.002%/min; • Minimum dm/dt equilibration time: 10 min • Maximum equilibration time: 180 min • RH range: 0% RH-95% RH-0% RH • RH gradient: 10% 6. Polarizing Light Microscope (PLM)
The X-ray powder diffraction (XRPD) pattern of the solid is shown in FIG. 1, and the XRPD diffraction peak data thereof is shown in Table 1 below. […] (onset temperature). […] The PLM results are shown in FIG. 5, which indicate that the solid is irregular crystal particles. This crystal form is defined as crystal form A.

[7] = Stability test of crystal form A; type: physicochemical
Procedure: The crystal forms obtained in Examples 2-10 were packaged in double-layer PE bags+aluminum foil bags+cardboard barrels, sealed and stored at a temperature of 40° C. and a relative humidity of 75%; a temperature of 25° C. and a relative humidity of 60%; at 5±3° C. for 6 months. The inspection items (appearance, moisture, related substance 1, related substance 2, content) were tested, and the specific test methods were as follows.
• Moisture Meter • Electronic balance 1.2 Reagents • Karl Fischer titrant: analytical grad • Anhydrous methanol: analytical grade 1.3 Detection Method • About 50 mL of methanol was pumped into the titration beaker for pre-titration; • About 1.0 g of the test sample was accurately weighed and put into the titration beaker, stirred to dissolve, and the moisture of the test sample was titrated; • The weight of the test sample added, the concentration of the Karl Fischer titrant and the volume of the Karl Fischer titrant consumed during determination were recorded; the moisture of the second test sample was determined using the same method. 1.4 Calculation Formula
[formula] • V—Volume of Karl Fischer titrant consumed for the test sample, mL; • F—Equivalent mass of water per 1 mL of Karl Fischer titrant, mg/mL; • W—Weighed sample amount of the test sample, g. 2 Related Substance 1 2.1 Chromatographic Conditions: High Performance Liquid Chromatography (HPLC) • Column: Waters XBridge C18 4.6×150 mm, 5 μm • Detector: UV or equivalent detector • Wavelength: 210 nm • Column temperature: 35° C. • Flow rate: 1.0 mL/min • Injection volume: 10 μL • Needle Wash: Acetonitrile • Mobile phase gradient: […]
About 25 mg of the test sample was accurately weighed and put into a 50 mL volumetric flask. The diluent was added to dissolve the substance and dilute the solution to the mark, and the solution was shaken well.
[formula] • AU—the peak area of impurities in the test sample solution; • AT—Total peak area of the test sample solution. • 2) Total impurity (%)=Σ single impurity
• 3 Related Substance 2 (D-isobutyrylproline) • 3.1 Chromatographic Conditions: High Performance Liquid Chromatography (HPLC) • Column: Synergi Hydro RP 4.6×250 mm, 4 μm • Detector: UV or equivalent detector • Wave length: 210 nm • Column temperature: 35° C. • Flow rate: 1.0 mL/min • Injection volume: 5 μL • Needle Wash: Acetonitrile • Mobile phase gradient: […]
About 20 mg of the test sample was accurately weighed and put into a 10 mL volumetric flask. The diluent was added to dissolve the test sample and dilute the solution to the mark, and the solution was shaken well. Two solutions were prepared in parallel and labeled as S1/S2 respectively. • 3.4 Calculation: Only the Peak of Related Substance 2 was Integrated
[formula] [formula] • ARS2—Average peak area of reference solution 2; • ARS1—Average peak area of 5 injections of reference solution 1; • As—Peak area of related substance 2 in the test sample solution; • MRS1—Weighed sample amount of related substance 2 in reference solution 1, mg; • Ms—Weighed sample amount of the test sample in the test sample solution, mg; • MRS2—Weighed sample amount of related substance 2 in reference solution 2, mg; […]

## CC(C)C(=O)N1CCC[C@H]1C(=O)OCOc1ccc([N+](=O)[O-])c2cccnc12 [Compound obtained in Example 1, ((5-nitroquinolin-8-yl)oxy)methyl-isobutyryl-L-prolinate]
[1]; With coenzyme
  Percentage (%) of remaining compound in dog liver microsomes: 33.13%
[1]; Without coenzyme
  Percentage (%) of remaining compound in dog liver microsomes: 53.50%
[2]; With coenzyme
  Percentage (%) of remaining compound in rat liver microsomes: 3.64%
[2]; Without coenzyme
  Percentage (%) of remaining compound in rat liver microsomes: 46.82%
[3]; With coenzyme
  Percentage (%) of remaining compound in mouse liver microsomes: 0.09%
[3]; Without coenzyme
  Percentage (%) of remaining compound in mouse liver microsomes: 49.07%
[4]; With coenzyme
  Percentage (%) of remaining compound in human liver microsomes: 26.92%
[4]; Without coenzyme
  Percentage (%) of remaining compound in human liver microsomes: 59.42%
[5]; intravenous 0.01 mmol/kg
  AUC0-inf of nitroxoline in plasma: 1290 ng*hmL^−1
[5]; oral 0.1 mmol/kg
  AUC0-inf of nitroxoline in plasma: 8750 ng*hmL^−1

## CC(C)C(=O)N1CCC[C@H]1C(=O)OCOc1ccc([N+](=O)[O-])c2cccnc12 [crystal form A, ((5-nitroquinolin-8-yl)oxy)methyl-isobutyryl-L-prolinate]
[6]
  crystal form before and after the DVS test (XRPD): unchanged
[6]; 25° C./80% RH
  vapor sorption (DVS): 0.17%
[7]; 5 ± 3° C., Time 0
  Appearance: Yellow solid
  Content: 101.1%
  Moisture: 0.09%
  Related substance 1 5-Nitro-8-hydroxyquinoline: 0.04%
  Related substance 1 Impurity 1: 0.27%
  Related substance 1 Maximum unknown single impurity: RRT 1.126: 0.07%
  Related substance 1 Total impurities: 0.53%
  Related substance 2: 0.06%
[7]; 5 ± 3° C., Time 6 M
  Appearance: Yellow solid
  Content: 99.6%
  Moisture: 0.1%
  Related substance 1 Impurity 1: 0.3%
  Related substance 1 Impurity 2: <0.01%
  Related substance 1 Maximum unknown single impurity: RRT 1.121: 0.07%
  Related substance 1 Total impurities: 0.5%
  Related substance 2: 0.03%
[7]; 25° C., 60% RH, Time 0
  Appearance: Yellow solid
  Content: 101.1%
  Moisture: 0.09%
  Related substance 1 Impurity 1: 0.27%
  Related substance 1 Maximum unknown single impurity: RRT 1.126: 0.07%
  Related substance 1 Total impurities: 0.53%
  Related substance 2: 0.06%
[7]; 25° C., 60% RH, Time 3 M
  Appearance: Yellow solid
  Content: 99.3%
  Moisture: 0.07%
  Related substance 1 Impurity 1: 0.32%
  Related substance 1 Impurity 2: <0.01%
  Related substance 1 Maximum unknown single impurity: RRT 1.123: 0.06%
  Related substance 1 Total impurities: 0.51%
  Related substance 2: 0.04%
[7]; 25° C., 60% RH, Time 6 M
  Appearance: Yellow solid
  Content: 99.8%
  Moisture: <0.1%
  Related substance 1 Impurity 1: 0.3%
  Related substance 1 Impurity 2: <0.01%
  Related substance 1 Maximum unknown single impurity: RRT 1.121: 0.06%
  Related substance 1 Total impurities: 0.5%
  Related substance 2: 0.04%
[7]; 40° C., 75% RH, Time 0
  Appearance: Yellow solid
  Content: 101.1%
  Moisture: 0.09%
  Related substance 1 5-Nitro-8-hydroxyquinoline: 0.04%
  Related substance 1 Impurity 1: 0.27%
  Related substance 1 Maximum unknown single impurity: RRT 1.126: 0.07%
  Related substance 1 Total impurities: 0.53%
  Related substance 2: 0.06%
[7]; 40° C., 75% RH, Time 1 M
  Appearance: Yellow solid
  Content: 101.1%
  Moisture: 0.06%
  Related substance 1 5-Nitro-8-hydroxyquinoline: 0.02%
  Related substance 1 Impurity 1: 0.27%
  Related substance 1 Maximum unknown single impurity: RRT 1.125: 0.06%
  Related substance 1 Total impurities: 0.52%
  Related substance 2: 0.05%
[7]; 40° C., 75% RH, Time 2 M
  Appearance: Yellow solid
  Content: 98.8%
  Moisture: 0.09%
  Related substance 1 Impurity 1: 0.27%
  Related substance 1 Impurity 2: 0.01%
  Related substance 1 Maximum unknown single impurity: RRT 1.132: 0.05%
  Related substance 1 Total impurities: 0.44%
  Related substance 2: 0.06%
[7]; 40° C., 75% RH, Time 3 M
  Appearance: Yellow solid
  Content: 99.3%
  Moisture: 0.06%
  Related substance 1 Impurity 1: 0.32%
  Related substance 1 Maximum unknown single impurity: RRT 1.123: 0.05%
  Related substance 1 Total impurities: 0.49%
  Related substance 2: 0.10%
[7]; 40° C., 75% RH, Time 6 M
  Appearance: Yellow solid
  Content: 99.7%
  Moisture: <0.1%
  Related substance 1 5-Nitro-8-hydroxyquinoline: <0.1%
  Related substance 1 Impurity 1: 0.3%
  Related substance 1 Impurity 2: <0.01%
  Related substance 1 Maximum unknown single impurity: RRT 0.896: 0.04%
  Related substance 1 Total impurities: 0.6%
  Related substance 2: 0.15%
